Laboratory results as given in US9657015B2, “Substituted bicyclic dihydropyrimidinones and their use as inhibitors of neutrophil elastase activity” (Boehringer Ingelheim International GmbH, priority 2014, dated 2017).
Converted amounts (≈) assume the structure as drawn.

What was measured:
[1] = Metabolic stability with human liver microsomes; type: in vitro ADME; details: pH 7.6; pooled human liver microsomes, 37° C., 1 μM test compound, 1 mg/ml microsomal protein, NADPH; read-out: t1/2 INVITRO
[2] = target: Human neutrophil elastase (Homo sapiens (Human), UniProt P08246); assay: Human Neutrophil Elastase Assay; type: biochemical; details: substrate MeOSuc-Ala-Ala-Pro-Val-AMC 250 μM, pH 7.5, room temperature
[3] = Aqueous solubility (High Throughput Method); type: physicochemical; details: McIlvaine buffer pH 6.8 with 2.5% DMSO, aqueous buffer, kinetic from dmso stock; McIlvaine buffer pH 6.8, 2.5% DMSO, 24 h shaking
Procedure: Assay for Determination of Aqueous Solubility (“High Throughput Method”)
Starting from a 10 mM DMSO stock solution, aliquots are diluted with acetonitrile/water (1/1) and McIlvaine buffer pH 6.8, respectively. After 24 h of shaking, the solutions or suspensions are filtered and analyzed by LC-UV. The amount dissolved in buffer is compared to the amount dissolved in the acetonitrile/water (1/1) solution. Solubility is measured from 0.001 to 0.125 mg/ml at a DMSO concentration of 2.5%. If more than 90% of the compound is dissolved in buffer, the value is marked with “>”.

[4] = target: neutrophil elastase in human plasma (Homo sapiens (Human), UniProt P08246); assay: Neutrophil elastase inhibitory activity in human plasma; type: biochemical; details: human plasma assay (zymosan-stimulated blood plasma), substrate 250 μM, pH 7.5
[5] = Drug transport across human Caco-2 cells; type: in vitro ADME; details: human, Caco-2 monolayers, pH 7.2, 37° C.; for Papp A→B at 10 µM: apical-to-basal, read-out: PEAB; for Papp B→A at 10 µM: basal-to-apical, read-out: PEBA
Source text: Assay for Determination of Drug Transport Across Human Caco-2 Cells
The assay provides information on the potential of a compound to pass the cell membrane, on the extent of oral absorption as well as on whether the compound is actively transported by uptake and/or efflux transporters. For the measurement of permeability across polarized, confluent human cancer colon carcinoma cells 2 (Caco-2) cell monolayers grown on permeable filter supports are used as the in vitro absorption model.
Apparent permeability coefficients (PE) of the compounds across the Caco-2 monolayers are measured (pH 7.2, 37° C.) in apical-to-basal (AB) (absorptive) and basal-to-apical (BA) (secretory) transport direction. AB permeability (PEAB) represents drug absorption from the intestine into the blood and BA permeability (PEBA) drug secretion from the blood back into the intestine via both passive permeability as well as active transport mechanisms mediated by efflux and uptake transporters that are expressed on the Caco-2 cells. The compounds are assigned to permeability/absorption classes by comparison of the AB permeabilities with the AB permeabilities of reference compounds with known in vitro permeability and oral absorption in the human. Identical or similar permeabilities in both transport directions indicate passive permeation, vectorial permeability points to additional active transport mechanisms. […] Active transport is concentration-dependently saturable.
Caco-2 cells (1-2*10^5 cells/cm^2 area) are seeded on filter inserts (Costar transwell polycarbonate or PET filters, 0.4 μm pore size) and cultured (DMEM) for 10 to 25 days. Compounds are dissolved in appropriate solvent (like DMSO, 1-20 mM stock solutions). Stock solutions are diluted with HTP-4 buffer (128.13 mM NaCl, 5.36 mM KCl, 1 mM MgSO4, 1.8 mM CaCl2, 4.17 mM NaHCO3, 1.19 mM Na2HPO4×7H2O, 0.41 mM NaH2PO4×H2O, 15 mM HEPES, 20 mM glucose, pH 7.2) to prepare the transport solutions (typically 10 μM compound, final DMSO<=0.5%). The transport solution (TL) is applied to the apical or basolateral donor side for measuring A-B or B-A permeability (3 filter replicates), respectively. The receiver side contains HTP-4 buffer supplemented with 2% BSA. Samples are collected at the start and end of experiment from the donor and at various time intervals for up to 2 hours also from the receiver side for concentration measurement by LC-MS/MS or scintillation counting. Sampled receiver volumes are replaced with fresh receiver solution.
The apparent permeability coefficients (PEAB and PEBA) of selected compounds in the Caco-2 drug transport assay described above are listed in Table 9.

[6] = Metabolic stability with human hepatocytes; type: in vitro ADME; details: human hepatocyte suspension (typically cryopreserved), 1 μM test compound, six hours, scaled with well stirred model
Procedure: Assay for the Determination of Metabolic Stability with Human Hepatocytes
The metabolic degradation of the test compound is assayed in a human hepatocyte suspension. Human hepatocytes (typically cryopreserved) are incubated in an appropriate buffer system (e.g. Dulbecco's modified eagle medium plus 3.5 μg glucagon/500 mL, 2.5 mg insulin/500 mL and 3.75 mg/500 mL hydrocortison) containing 5% species serum. Following a (typically) 30 min preincubation in an incubator (37° C., 10% CO2), 5 μl of test compound solution (80 μM; from 2 mM stock solution in DMSO diluted 1:25 with medium) are added into 395 μl hepatocyte suspension (cell density in the range 0.25-5*10^6 cells/mL, typically 1*10^6 cells/mL; final concentration of test compound 1 μM, final DMSO concentration 0.05%). The cells are incubated for six hours (incubator, orbital shaker) and samples (25 μl) are taken at 0, 0.5, 1, 2, 4 and 6 hours. Samples are transferred into acetonitrile and pelleted by centrifugation (5 min) The supernatant is transferred to a new 96-deepwell plate, evaporated under nitrogen and resuspended. The decline of parent compound is analyzed by LC-MS/MS.
The intrinsic clearance CL_[…] is calculated as follows: CL_[…]=Dose/AUC=(C0/CD)/(AUD+clast/k)*1′000/60 (C0: initial concentration in the incubation [μM], CD: cell density of vital cells [10^6 cells/mL], AUD: area under the data [μM*h], clast: concentration of last data point [μM], k: slope of the regression line for parent decline [h^−1])
The calculated in vitro hepatic intrinsic clearance can be scaled up to the intrinsic in vivo hepatic clearance and used to predict hepatic in vivo blood clearance (CL) by the use of a liver model (well stirred model): CL_[…]_INVIVO [ml/min/kg]=(CL_[…] [μL/min/10^6 cells]*hepatocellularity [10^6 cells/g liver]*liver factor [g/kg bodyweight])/1′000 CL [ml/min/kg]=CL_[…]_INVIVO [ml/min/kg]*hepatic blood flow [ml/min/kg]/(CL_[…]_INVIVO [ml/min/kg]+hepatic blood flow [ml/min/kg]) Qh [%]=CL [ml/min/kg]/hepatic blood flow [ml/min/kg]) (Hepatocellularity, human: 120*10^6 cells/g liver; liver factor, human: 25.7 g/kg bodyweight; blood flow, human: 21 ml/(min*kg))

Human neutrophil elastase, sequence (P08246 30-247): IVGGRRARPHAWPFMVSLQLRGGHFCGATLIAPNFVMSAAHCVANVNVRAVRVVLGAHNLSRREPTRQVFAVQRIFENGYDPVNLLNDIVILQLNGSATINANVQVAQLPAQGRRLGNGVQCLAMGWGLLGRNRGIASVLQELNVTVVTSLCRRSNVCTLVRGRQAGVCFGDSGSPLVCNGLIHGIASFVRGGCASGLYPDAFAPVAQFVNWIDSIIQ
neutrophil elastase in human plasma, sequence (P08246 30-247): as above

| half-life at 1 μM [1] | IC50 [2] | solubility at 24 h [3] | IC50 [4] | Papp A→B at 10 µM [5] | Papp B→A at 10 µM [5] | CLhep predicted at 1 μM [6] | SMILES |
| --- | --- | --- | --- | --- | --- | --- | --- |
| > 2.17 h | < 1 nM | 84 µg/mL (≈ 167 µM) | < 1 nM | 5.7 ×10⁻⁶ cm/s | 100 ×10⁻⁶ cm/s | 1 mL/min/kg | CN1C(=O)N(c2cccc(C(F)(F)F)c2)C2=C(C(=O)NCC2)C1c1ccc(C#N)cc1-c1ccncn1 (stereo not shown) [Example 35, 4-{3-Methyl-2,5-dioxo-1-[3-(trifluoromethyl)phenyl]-1H,2H,3H,4H,5H,6H,7H,8H-pyrido[4,3-d]pyrimidin-4-yl}-3-(pyrimidin-4-yl)benzonitrile] |
| – | < 1 nM | 89 µg/mL (≈ 189 µM) | 1.4 nM | 24 ×10⁻⁶ cm/s | 91 ×10⁻⁶ cm/s | – | CN1CCC2=C(C1=O)C(c1ccc(C#N)cc1CO)N(C)C(=O)N2c1cccc(C(F)(F)F)c1 (stereo not shown) [Example 38, 4-{3,6-Dimethyl-2,5-dioxo-1-[3-(trifluoromethyl)phenyl]-1H,2H,3H,4H,5H,6H,7H,8H-pyrido[4,3-d]pyrimidin-4-yl}-3-(hydroxymethyl)benzonitrile] |
| > 2.17 h | < 1 nM | > 88 µg/mL | 1 nM | 37 ×10⁻⁶ cm/s | 80 ×10⁻⁶ cm/s | – | CN1C(=O)N(c2cccc(C(F)(F)F)c2)C2=C(C(=O)NCC2)[C@H]1c1ccc(C#N)cc1 [Example 6, (R)-4-(3-Methyl-2,5-dioxo-1-(3-(trifluoromethyl)phenyl)-1,2,3,4,5,6,7,8-octahydropyrido[4,3-d]pyrimidin-4-yl)benzonitrile] |
| > 2.17 h | – | 93 µg/mL (≈ 170 µM) | 1 nM | 6 ×10⁻⁶ cm/s | 91 ×10⁻⁶ cm/s | – | CN1CCC2=C(C1=O)C(c1ccc(C#N)cc1-c1ccc(=O)n(C)n1)N(C)C(=O)N2c1cccc(C(F)(F)F)c1 (stereo not shown) [Example 41, 4-{3,6-Dimethyl-2,5-dioxo-1-[3-(trifluoromethyl)phenyl]-1H,2H,3H,4H,5H,6H,7H,8H-pyrido[4,3-d]pyrimidin-4-yl}-3-(1-methyl-6-oxo-1,6-dihydropyridazin-3-yl)-benzonitrile] |
| > 2.17 h | < 1 nM | – | < 1 nM | 17 ×10⁻⁶ cm/s | 87 ×10⁻⁶ cm/s | 1 mL/min/kg | CN1C(=O)N(c2cccc(C(F)(F)F)c2)C2=C(C(=O)NCC2)C1c1ccc(C#N)cc1S(C)(=O)=O (stereo not shown) [Example 40, 3-Methanesulfonyl-4-{3-methyl-2,5-dioxo-1-[3-(trifluoromethyl)phenyl]-1H,2H,3H,4H,5H,6H,7H,8H-pyrido[4,3-d]pyrimidin-4-yl}benzonitrile] |
| – | < 1 nM | – | 5.3 nM | – | – | – | CN1C(=O)N(c2cccc(C(F)(F)F)c2)C2=C(C(=O)NCC2)C1c1ccc(C#N)cc1-c1ccncc1 (stereo not shown) [Example 33, 4-{3-Methyl-2,5-dioxo-1-[3-(trifluoromethyl)phenyl]-1H,2H,3H,4H,5H,6H,7H,8H-pyrido[4,3-d]pyrimidin-4-yl}-3-(pyridin-4-yl)benzonitrile] |

Second part, the compound before the results:

| SMILES | half-life at 1 μM [1] | IC50 [2] | solubility at 24 h [3] | IC50 [4] | Papp A→B at 10 µM [5] | Papp B→A at 10 µM [5] | CLhep predicted at 1 μM [6] |
| --- | --- | --- | --- | --- | --- | --- | --- |
| CN1CCC2=C(C1=O)[C@@H](c1ccc(C#N)cc1)NC(=O)N2c1cccc(C(F)(F)F)c1 [Example 4A, (R)-4-(6-Methyl-2,5-dioxo-1-(3-(trifluoromethyl)phenyl)-1,2,3,4,5,6,7,8-octahydropyrido[4,3-d]pyrimidin-4-yl)benzonitrile] | > 2.17 h | 1.3 nM | > 89 µg/mL | 2.7 nM | 17 ×10⁻⁶ cm/s | 34 ×10⁻⁶ cm/s | – |
| COC(=O)CN1C(=O)N(c2cccc(C(F)(F)F)c2)C2=C(C(=O)NCC2)C1c1ccc(C#N)cc1 (stereo not shown) [Example 9, Methyl 2-(4-(4-Cyanophenyl)-2,5-dioxo-1-(3-(trifluoromethyl)phenyl)-1,2,5,6,7,8-hexahydropyrido[4,3-d]pyrimidin-3(4H)-yl)acetate] | > 2.17 h | 2.3 nM | 88 µg/mL (≈ 182 µM) | 3.1 nM | 6.1 ×10⁻⁶ cm/s | 63 ×10⁻⁶ cm/s | – |
| CN1CCC2=C(C1=O)C(c1ccc(C#N)cc1C(N)=O)N(C)C(=O)N2c1cccc(C(F)(F)F)c1 (stereo not shown) [Example 39, 5-Cyano-2-{3,6-dimethyl-2,5-dioxo-1-[3-(trifluoromethyl)phenyl]-1H,2H,3H,4H,5H,6H,7H,8H-pyrido[4,3-d]pyrimidin-4-yl}benzamide] | > 2.17 h | < 1 nM | 78 µg/mL (≈ 161 µM) | < 1 nM | 4.2 ×10⁻⁶ cm/s | 59 ×10⁻⁶ cm/s | – |
| CN1C(=O)N(c2cccc(C(F)F)c2)C2=C(C(=O)NCC2)[C@H]1c1ccc(C#N)cc1 [Example 8A, (R)-4-(1-(3-(Difluoromethyl)phenyl)-3-methyl-2,5-dioxo-1,2,3,4,5,6,7,8-octahydropyrido[4,3-d]pyrimidin-4-yl)benzonitrile] | > 2.17 h | < 1 nM | 61 µg/mL (≈ 149 µM) | < 1 nM | 20 ×10⁻⁶ cm/s | 97 ×10⁻⁶ cm/s | 2 mL/min/kg |
| N#Cc1ccc([C@H]2NC(=O)N(c3cccc(C(F)F)c3)C3=C2C(=O)NCC3)cc1 [Example 2A, (R)-4-(1-(3-(Difluoromethyl)phenyl)-2,5-dioxo-1,2,3,4,5,6,7,8-octahydropyrido[4,3-d]-pyrimidin-4-yl)benzonitrile] | > 2.17 h | 3.2 nM | > 92 µg/mL | 5.4 nM | 4.7 ×10⁻⁶ cm/s | 31 ×10⁻⁶ cm/s | – |
| CC1(C)CC2=C(C(=O)N1)C(c1ccc(C#N)cc1)N(CC(=O)O)C(=O)N2c1cccc(C(F)(F)F)c1 (stereo not shown) [Example 13, 2-(4-(4-cyanophenyl)-7,7-dimethyl-2,5-dioxo-1-(3-(trifluoromethyl)phenyl)-1,2,5,6,7,8-hexahydropyrido[4,3-d]pyrimidin-3(4H)-yl)acetic acid] | – | 4.3 nM | – | 2.2 nM | – | – | – |
